Values of other authors in US20190083000A1, “PERSONALIZED FOOD FOR DYSPHAGIA MANAGEMENT” (NESTEC S.A., priority 2016, published 2019).

Conditions: database Episuite 4.1

| Molecule | Lipophilicity: Oil/Water partition coefficient log Kow [w/v] | Volatility: Air/water partition coefficient log K [w/v] |
| --- | --- | --- |
| CSC [Dimethylsulfide] | 0.92 | −1.49 |
| CS [Methanethiol] | 0.78 | −0.97 |
| CC(C)CC=O [3-Methylbutanal] | 1.23 | −2.19 |
| CCC(=O)C(C)=O [2,3-Pentanedione] | −0.85 | −4.97 |
| CCCC(=O)OCC [Ethylbutyrate] | 1.85 | −1.79 |
| CCC(C)C=O (stereo not drawn) [2-Methylbutanal] | 1.23 | −2.20 |
| CC=O [Acetaldehyde] | −0.17 | −2.56 |
| 2-Methylpropanal | – | −2.31 |
| CC(=O)C(C)=O [2,3-Butanedione] | −1.34 | −5.09 |
| COc1cc(C=O)ccc1O [Vanillin] | 1.05 | −8.47 |
| C=C(C)[C@H]1CC=C(C)CC1 [Limonene] | 4.38 | 0.12 |
